Data from PMC4836297, “Leveraging family-specific signatures for AMP discovery and high-throughput annotation” (Scientific Reports, 2016).
Read-outs that look alike come from different tables or passages of the source. Marks after values point to notes of the source that are not given here. Residues, ends and D or L forms follow the SMILES beside them.

How the values were obtained:
E. coli 8739 (NCIM 2065) = type: cell-based, Escherichia coli; conditions: for inhibition at 100 microM: 8739 (NCIM 2065, 18 h, 100 microM); for MIC (*50% inhibition): starred value: 50% inhibition only
Method: (§1) Antimicrobial activity of the synthesized peptides was determined by broth microdilution assay and evaluated based on minimum inhibitory concentration (MIC). […] Gram negative microorganisms (Escherichia coli ATCC 8739, Escherichia coli ATCC 25922) were grown in Mueller-Hinton (MH) broth at 37 °C for 18h on a shaker to obtain an OD600nm of 0.8. Bacterial cultures were diluted in MH broth to obtain a cell density of 10^5–10^6 c.f.u/ml. Different concentrations of peptides, ranging from 1–100 μM were serially diluted in MH broth and inoculated with bacterial cultures in 1:1 ratio in sterile 96-well microtiter plates. The plates were incubated at 37 °C for 18h and antimicrobial activity was evaluated as MIC of the peptides by determining the absorbance at 600nm. The microorganisms were obtained from National Collection of Industrial Microorganisms (NCIM), Pune.

[1] = system: E. coli 25922 (NCIM 2931); type: cell-based, Escherichia coli; conditions: for MIC (*50% inhibition): starred value: 50% inhibition only
Method: as §1

[2] = Escherichia coli ATCC 8739, MH broth, 37 °C 18h, absorbance at 600nm, average range, triplicates of three independent experiments
[3] = Escherichia coli ATCC 25922, MH broth, 37 °C 18h, absorbance at 600nm, average range, triplicates of three independent experiments
[4] = Escherichia coli ATCC 8739, complete growth inhibition, MH broth, 10^5–10^6 c.f.u/ml, peptides 1–100 μM, 37 °C 18h, absorbance at 600nm, average range, triplicates of three independent experiments
[5] = Escherichia coli ATCC 25922, complete growth inhibition, MH broth, 10^5–10^6 c.f.u/ml, peptides 1–100 μM, 37 °C 18h, absorbance at 600nm, average range, triplicates of three independent experiments

Row | Molecule | MIC (E. coli 8739 (NCIM 2065); 8739 (NCIM 2065, 18 h)) | antimicrobial activity (in words) (E. coli 8739 (NCIM 2065); Escherichia coli ATCC 8739) | antimicrobial activity (in words) ([1]; Escherichia coli ATCC 25922) | inhibition at 100 microM (E. coli 8739 (NCIM 2065)) | MIC (*50% inhibition) (E. coli 8739 (NCIM 2065); [2]) | MIC (*50% inhibition) [1, 3] | MIC (E. coli 8739 (NCIM 2065); [4]) | MIC [1, 5] | further results
1 | CC[C@H](C)[C@H](NC(=O)CNC(=O)[C@H](CC(=O)O)NC(=O)[C@H](CCCNC(=N)N)NC(=O)[C@@H](NC(=O)[C@H](CC(N)=O)NC(=O)[C@H](CCCNC(=N)N)NC(=O)CNC(=O)[C@@H](NC(=O)[C@H](CCCCN)NC(=O)[C@H](CCC(=O)O)NC(=O)[C@@H](NC(=O)[C@H](CCCCN)NC(=O)[C@H](CCCCN)NC(=O)[C@H](Cc1ccccc1)NC(=O)[C@@H](NC(=O)[C@H](CCCCN)NC(C)=O)[C@@H](C)CC)[C@@H](C)CC)C(C)C)C(C)C)C(=O)N[C@H](C(=O)N[C@@H](CCCCN)C(=O)N[C@@H](C)C(=O)NCC(=O)N1CCC[C@H]1C(=O)N[C@@H](C)C(=O)N[C@H](C(=O)N[C@@H](C)C(=O)N[C@H](C(=O)N[C@H](C(=O)N[C@@H](CCC(=O)O)C(=O)N[C@@H](CCC(N)=O)C(=O)N[C@@H](C)C(N)=O)C(C)C)C(C)C)C(C)C)[C@@H](C)CC [CecH] (Ac-KIFKKIEKVGRNVRDGIIKAGPAVAVVEQA-NH2) | 3.125 to 6.25 µM | activity similar to that of gentamycin | activity similar to that of gentamycin |  |  |  |  |  | MIC ([1]; 25922 (NCIM 2931, 18 h)): 6.25 to 12.5 µM
2 | CSCC[C@H](NC(=O)[C@H](CCCNC(=N)N)NC(=O)[C@H](CCC(N)=O)NC(=O)[C@H](Cc1c[nH]c2ccccc12)NC(=O)[C@H](CO)NC(=O)[C@H](CCC(N)=O)NC(=O)[C@H](CCCCN)NC(C)=O)C(=O)N[C@@H](CCCNC(=N)N)C(=O)N[C@@H](CCCCN)C(=O)N[C@@H](CC(C)C)C(=O)N[C@@H](C)C(=O)N[C@@H](CC(C)C)C(=O)N[C@@H](CCCCN)C(=O)N[C@@H](CCCNC(=N)N)C(N)=O [LactP1] (Ac-KQSWQRMRKLALKR-NH2) |  |  |  | 50% | 50–100* microM | 50–100* microM |  |  | inhibition at 100 microM ([1]; 25922 (NCIM 2931, 18 h, 100 microM)): 50%
3 | CSCC[C@H](NC(=O)[C@H](CCCNC(=N)N)NC(=O)[C@H](CCC(N)=O)NC(=O)[C@H](Cc1c[nH]c2ccccc12)NC(=O)[C@H](CO)NC(=O)[C@H](CCC(N)=O)NC(=O)[C@H](CCCCN)NC(=O)[C@H](CC(C)C)NC(=O)[C@H](CCC(=O)O)NC(=O)[C@H](CCC(=O)O)NC(=O)[C@H](CCCNC(=N)N)NC(=O)[C@H](CCCNC(=N)N)NC(=O)[C@H](CCCNC(=N)N)NC(=O)[C@H](CCCNC(=N)N)NC(C)=O)C(=O)N[C@@H](CCCNC(=N)N)C(=O)N[C@@H](CCCCN)C(=O)N[C@@H](CC(C)C)C(=O)N[C@@H](C)C(=O)N[C@@H](CC(C)C)C(=O)N[C@@H](CCCCN)C(=O)N[C@@H](CCCNC(=N)N)C(N)=O [LactP2] (Ac-RRRREELKQSWQRMRKLALKR-NH2) | 50 to 100 µM |  |  | 100% |  | 50–100* microM |  |  | 
4 | Gentamycin [reference compound] |  |  |  |  |  |  | 1.56 to 3.125 µM | 1.56 to 3.125 µM | 
5 | PLSCRRKIGICVLIRCSGNMRQIGTCLGALVKCCR [DefH, 35-residue defensin family peptide retrieved using HMMs, Class II; N-acetylated, C-amidated] |  |  |  |  | 50–100* microM |  |  | NA (Did not show activity upto 100 microM) | 
6 | WQRMRKL [LactP, N-acetylated, C-amidated] |  | lacks activity | lacks activity |  |  |  | NA (Did not show activity upto 100 microM) | NA (Did not show activity upto 100 microM) | 
